In ChEMBL document CHEMBL5465560, “Selectivity Literature for EUbOPEN Chemogenomic Library” (2024):
Positions count from the first letter of the chain named.

How the values were obtained:
Conditions in all cases: at 10 µM
[1] = biological target: Receptor-type tyrosine-protein kinase FLT3 (Homo sapiens) (UniProt P36888); assay: (§1) Selectivity interaction (KinomeScan (DiscoverX)) EUB0000595a FLT3
[2] = test system: Receptor-type tyrosine-protein kinase FLT3 (Homo sapiens), P36888 [UNDEFINED MUTATION]; assay: as §1
[3] = test system: T1, Receptor-type tyrosine-protein kinase FLT3 (Homo sapiens), P36888 [R834Q]; assay: as §1
T1 sequence (whole entry): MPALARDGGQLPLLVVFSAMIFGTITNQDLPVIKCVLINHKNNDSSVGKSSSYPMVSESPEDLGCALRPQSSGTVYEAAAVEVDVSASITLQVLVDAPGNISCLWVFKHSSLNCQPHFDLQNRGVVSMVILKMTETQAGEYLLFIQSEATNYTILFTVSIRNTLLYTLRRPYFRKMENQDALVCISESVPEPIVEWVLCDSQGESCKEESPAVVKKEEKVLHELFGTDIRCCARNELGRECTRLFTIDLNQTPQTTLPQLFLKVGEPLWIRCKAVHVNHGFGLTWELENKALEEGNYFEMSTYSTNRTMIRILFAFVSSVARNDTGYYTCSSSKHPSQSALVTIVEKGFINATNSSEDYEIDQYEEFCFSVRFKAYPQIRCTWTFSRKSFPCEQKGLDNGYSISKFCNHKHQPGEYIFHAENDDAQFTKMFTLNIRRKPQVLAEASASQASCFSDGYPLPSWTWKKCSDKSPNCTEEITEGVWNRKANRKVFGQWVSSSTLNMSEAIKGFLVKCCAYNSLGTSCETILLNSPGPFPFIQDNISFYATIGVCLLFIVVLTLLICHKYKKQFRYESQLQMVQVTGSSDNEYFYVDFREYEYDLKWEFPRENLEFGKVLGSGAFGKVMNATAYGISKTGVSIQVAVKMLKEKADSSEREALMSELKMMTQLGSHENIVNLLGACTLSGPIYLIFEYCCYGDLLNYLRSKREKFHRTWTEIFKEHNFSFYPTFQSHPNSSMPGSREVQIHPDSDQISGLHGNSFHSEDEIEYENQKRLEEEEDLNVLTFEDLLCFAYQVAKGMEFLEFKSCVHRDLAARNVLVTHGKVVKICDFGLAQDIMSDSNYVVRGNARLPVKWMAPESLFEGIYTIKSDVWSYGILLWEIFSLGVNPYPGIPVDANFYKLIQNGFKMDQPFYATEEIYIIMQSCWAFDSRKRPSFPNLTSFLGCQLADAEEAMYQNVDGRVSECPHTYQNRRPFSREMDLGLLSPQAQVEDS

[4] = test system: T2, Receptor-type tyrosine-protein kinase FLT3 (Homo sapiens), P36888 [N841I]; assay: as §1
T2 sequence (whole entry): T1 sequence (whole entry) with Q834R, N841I

[5] = test system: T3, Receptor-type tyrosine-protein kinase FLT3 (Homo sapiens), P36888 [K663Q]; assay: as §1
T3 sequence (whole entry): T1 sequence (whole entry) with K663Q, Q834R

Compound: COCC(=O)NC/C=C/c1ccc2ncnc(Nc3ccc(Oc4ccc(C)nc4)c(C)c3)c2c1 [CP-724714]
- % of control [1]: 100%
- % of control [2]: 87%
- % of control [3]: 100%
- % of control [4]: 79%
- % of control [5]: 79%
